From US7667052B2 (Eisai R&D Management Co., Ltd., priority 2003, dated 2010)
Like-named read-outs stand apart in the source and are kept apart here.

Assays:
[1] = test system: VEGF production in U251 human glioma cell; assay: VEGF production suppressing action under low oxygen, ELISA; type: cell-based; details: for VEGF production suppression, in words: U251, low oxygen stimulation
Method: U251 human glioma cell cultured in DULBECCO-modified eagle medium (DMEM; manufactured by SIGMA Co., Ltd.) containing 10% fetal calf serum, penicillin (100 unit/ml) and streptomycin (100 μg/ml) was dispensed in 96-well plates by 4×10^4 cells/well. After culturing at 37° C. overnight in a CO2 incubator (5% CO2), the media were removed, and 180 μl of the above-mentioned incubation solution was charged. After adding 20 μL of the above-mentioned incubation solution containing the test compound diluted with 3-fold succession, they were incubated in a low oxygen (2% O2) incubator for 18 hours. The supernatants thereof were measured by an ELISA kit (Immunobiology Research Institute).
Concentration at which the amount of VEGF expressed by low oxygen stimulation was suppressed to 50% (IC50 value) was determined and results are shown in Table 9. […] The activities of 11107F and 11107G were very weak.

[2] = test system: human breast cancer BSY-1 cell; assay: Solid cancer proliferation suppressing action, subcutaneous transplant; type: in vivo, mice; details: 10 mg/kg once intravenous
Method: In order to study solid cancer proliferation suppressing action of 11107B in vivo, human breast cancer BSY-1 cell was transplanted to the subcutaneous body sides of mice. The animals were grouped so that the average of the volumes of the respective groups became uniform, when it reached about 100 mm^3. Control group was made as 10 mice and 11107B-administering groups were made as 5 mice. 11107B was administrated for the 11107B-administering groups once by intravenous injection so as to be 10 mg/kg, and a vehicle was administered to the control group. The tumor volumes on the fifth day, eighth day, 12th day and 15th day were measured, and relative tumor volumes were determined setting the tumor volume at the initiation of administration as 1.

[3] = test system: transcription from VEGF promoter; assay: VEGF transcription-suppressing activity, VEGF-PLAP reporter in U251/1-8 cell; type: cell-based; details: Homo sapiens, U-251, U251/1-8 cell, PLAP activity, low oxygen 18 hours
Summary of the method: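 U251 glioma clone stably carrying a ~2.3 kb human VEGF promoter–secreted PLAP reporter, 4×10^4 cells/well, exposed to 3-fold dilutions of compound for 18 h under low oxygen. Supernatant PLAP read by chemiluminescence at pH 10.0; IC50 = 50% suppression, normoxia 0%, hypoxia 100%.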

[4] = Solubility (physico-chemical properties of the 11107 analogues); details: in dimethylsulfoxide, pyridine, methanol, acetone and water
[5] = test system: P388 mouse leukemia cell; details: Seki-Asano M. et al, J. Antibiotics Vol. 47, 1395-1401, 1994; cited from earlier work

SMILES: CCC(O)C(C)C1OC1CC(C)/C=C/C=C(\C)C1OC(=O)CC(O)CCC(C)(O)C(OC(C)=O)/C=C/C1C (stereo not shown) [11107 B]
- VEGF production suppressing action: IC50 ([1]; U251, low oxygen (2% O2) incubator 18 hours): 0.8 ng/mL
- relative tumor volume ([2]; day 1 after the administration (volume at initiation of administration set as 1)): 1
- relative tumor volume ([2]; day 5 after the administration): 1.08
- relative tumor volume ([2]; day 8 after the administration): 1.28
- relative tumor volume ([2]; day 12 after the administration): 1.40
- relative tumor volume ([2]; day 15 after the administration): 1.70

SMILES: CCC(O)C(C)C1OC1CC(C)(O)/C=C/C=C(\C)C1OC(=O)CC(O)CCC(C)(O)C(OC(C)=O)/C=C/C1C (stereo not shown) [11107D]
- VEGF production suppression, in words [1]: strong successive to 11107B
- IC50 ([3]; read-out: IC50 values of VEGF transcription-suppressing activity (range given)): 1 to 100 nM
- IC50 ([3]; read-out: VEGF transcription suppressing activity (IC50: nM)): 6.6 nM
- Solubility [4]: soluble in dimethylsulfoxide, pyridine, methanol and acetone, and slightly soluble in water

SMILES: CCC(O)C(C)(O)C1OC1CC(C)/C=C/C=C(\C)C1OC(=O)CC(O)CCC(C)(O)C(O)/C=C/C1C (stereo not shown) [11107G]
- VEGF production suppression, in words [1]: very weak
- Solubility [4]: soluble in dimethylsulfoxide, pyridine, methanol and acetone, and slightly soluble in water

SMILES: CCC(OC)C(C)C1OC1C(O)C(C)/C=C/C=C(\C)C1OC(=O)CC(O)CCC(C)(O)C(OC(C)=O)/C=C/C1C (stereo not shown) [FD895]
- effect in an animal experiment using P388 mouse leukemia cell [5]: ineffective
